Assay results taken from the supplement of paper PMC10307832.

Assays:
Assay in all cases: relative viability (nuclei count vs DMSO), 5 days (fraction); higher = more cells survive
NCI-H2126 = tested on: NCI-H2126
In short: (§1)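 Values are medians from duplicate plates. Each reflects relative viability, defined as the nuclei count of treated wells over that of vehicle wells. Lung cancer cell lines in 1536-well plates were pin-tool dosed one day after seeding with one drug alone or with a fixed anchor-drug dose plus five library-drug doses (not always all listed) in √10 steps, then fixed, stained and imaged at 4× after 5 days.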

NCI-H441 = tested on: NCI-H441
In short: as §1

ABC-1 = tested on: ABC-1
In short: as §1

NCI-H2085 = tested on: NCI-H2085
In short: as §1

NCI-H3122 = tested on: NCI-H3122
In short: as §1

NCI-H322M = tested on: NCI-H322M
In short: as §1

NCI-H1755 = tested on: NCI-H1755
In short: as §1

CAL-12T = tested on: CAL-12T
In short: as §1

NCI-H1915 = tested on: NCI-H1915
In short: as §1

ChaGo-K-1 = tested on: ChaGo-K-1
In short: as §1

HOP-62 = tested on: HOP-62
In short: as §1

COc1cc2nccc(Oc3ccc(NC(=O)Nc4cc(C)on4)c(Cl)c3)c2cc1OC [Tivozanib] + CS(=O)(=O)N1CCN(Cc2cc3nc(-c4cccc5[nH]ncc45)nc(N4CCOCC4)c3s2)CC1 [Pictilisib] (partner 1 µM)
relative viability (NCI-H2126; first compound 0.005 µM): 0.41
relative viability (NCI-H2126; first compound 0.01581 µM): 0.533
relative viability (NCI-H2126; first compound 0.05 µM): 0.489
relative viability (NCI-H2126; first compound 0.1581 µM): 0.36
relative viability (NCI-H2126; first compound 0.5 µM): 0.469
relative viability (NCI-H441; first compound 0.005 µM): 0.571
relative viability (NCI-H441; first compound 0.01581 µM): 0.511
relative viability (NCI-H441; first compound 0.05 µM): 0.536
relative viability (NCI-H441; first compound 0.1581 µM): 0.484
relative viability (NCI-H441; first compound 0.5 µM): 0.31
relative viability (ABC-1; first compound 0.005 µM): 0.775
relative viability (ABC-1; first compound 0.01581 µM): 0.673
relative viability (ABC-1; first compound 0.05 µM): 0.794
relative viability (ABC-1; first compound 0.1581 µM): 0.646
relative viability (ABC-1; first compound 0.5 µM): 0.326
relative viability (NCI-H2085; first compound 0.005 µM): 0.474
relative viability (NCI-H2085; first compound 0.01581 µM): 0.456
relative viability (NCI-H2085; first compound 0.05 µM): 0.536
relative viability (NCI-H2085; first compound 0.1581 µM): 0.405
relative viability (NCI-H2085; first compound 0.5 µM): 0.408
relative viability (NCI-H3122; first compound 0.005 µM): 0.568
relative viability (NCI-H3122; first compound 0.01581 µM): 0.547
relative viability (NCI-H3122; first compound 0.05 µM): 0.598
relative viability (NCI-H3122; first compound 0.1581 µM): 0.644
relative viability (NCI-H3122; first compound 0.5 µM): 0.789
relative viability (NCI-H322M; first compound 0.005 µM): 0.484
relative viability (NCI-H322M; first compound 0.01581 µM): 0.518
relative viability (NCI-H322M; first compound 0.05 µM): 0.529
relative viability (NCI-H322M; first compound 0.1581 µM): 0.465
relative viability (NCI-H322M; first compound 0.5 µM): 0.568
relative viability (NCI-H1755; first compound 0.005 µM): 0.365
relative viability (NCI-H1755; first compound 0.01581 µM): 0.402
relative viability (NCI-H1755; first compound 0.05 µM): 0.453
relative viability (NCI-H1755; first compound 0.1581 µM): 0.405
relative viability (NCI-H1755; first compound 0.5 µM): 0.396
relative viability (CAL-12T; first compound 0.005 µM): 0.212
relative viability (CAL-12T; first compound 0.01581 µM): 0.445
relative viability (CAL-12T; first compound 0.05 µM): 0.608
relative viability (CAL-12T; first compound 0.5 µM): 0.404
relative viability (NCI-H1915; first compound 0.005 µM): 0.936
relative viability (NCI-H1915; first compound 0.01581 µM): 0.995
relative viability (NCI-H1915; first compound 0.05 µM): 0.901
relative viability (NCI-H1915; first compound 0.1581 µM): 0.485
relative viability (NCI-H1915; first compound 0.5 µM): 0.742
relative viability (ChaGo-K-1; first compound 0.005 µM): 0.591
relative viability (ChaGo-K-1; first compound 0.01581 µM): 0.779
relative viability (ChaGo-K-1; first compound 0.05 µM): 0.559
relative viability (ChaGo-K-1; first compound 0.1581 µM): 0.388
relative viability (ChaGo-K-1; first compound 0.5 µM): 0.504
relative viability (HOP-62; first compound 0.005 µM): 0.579
relative viability (HOP-62; first compound 0.01581 µM): 0.744
relative viability (HOP-62; first compound 0.05 µM): 0.708
relative viability (HOP-62; first compound 0.1581 µM): 0.368
relative viability (HOP-62; first compound 0.5 µM): 0.649
